From article PMC2784635 (Bioorganic & medicinal chemistry, 2008)

Tested on: strobilurin resistant strain of Plasmopara viticola
Test: cross-resistance test on small vine plants in the glasshouse

With `COC(=O)CNC(=O)/C=C\C/C=C\NC(=O)/C=C(C)/C=C/[C@H](C)[C@H](OC)[C@H](C)[C@H](/C=C/c1ccccc1)OC` [Compound 8, crocacin A] the “cross-resistance to strobilurin resistant Plasmopara viticola” value was “little or no cross-resistance”.
